Assay results: patent US8399452B2, “Dibenzo[b,f][1,4]oxazepin-11-yl-N-hydroxybenzamides as HDAC inhibitors” (Methylgene Inc., priority 2006, dated 2013)
Read-outs that look alike come from different tables or passages of the source.

Target: histone deacetylase (HDAC Enzyme)
Assay: Inhibition of Histone Deacetylase Enzymatic Activity (Boc-Lys(Ac)-AMC, Fluor-de-Lys developer)
Format: biochemical
Procedure: The following protocol is used to assay the compounds of the invention.
The mixture is pre-incubated for 5 minutes at room temperature. The reaction is started by bringing the temperature to 37° C. and adding 16 μl substrate. Total reaction volume is 50 μl.
In the Tables 8, 9 and 10, A≦[…]<B≦0.1 μM; 0.1 μM<C≦1 μM; and 1 μM<D≦10 μM.

[1] = read-out: HDAC Inhibtion (IC50 μM) HDAC Enzyme
[2] = Table 10, read-out: HDAC Inhibition (IC50 μM) HDAC Enzyme

SMILES	IC50 [1]	IC50 [2]
N#Cc1ccc2c(c1)N=C(c1ccc(C(=O)NO)cc1)c1ccccc1O2 [(Z)-4-(8-cyanodibenzo[b,f][1,4]oxazepin-11-yl)-N-hydroxybenzamide]	0.05 to 0.1 µM	–
O=C(NO)c1ccc(C2=Nc3c(F)cccc3Oc3ccccc32)cc1 [(Z)-4-(9-fluorodibenzo[b,f][1,4]oxazepin-11-yl)-N-hydroxybenzamide]	0.05 to 0.1 µM	–
O=C(NO)c1ccc(C2=Nc3ccccc3N(CC3CC3)c3ncccc32)cc1 [(Z)-4-(11-(cyclopropylmethyl)-11H-benzo[b]pyrido[2,3-e][1,4]diazepin-5-yl)-N-hydroxybenzamide]	1 to 10 µM	–
O=C(NO)c1ccc(C2=Nc3ccccc3N(C3CC3)c3ncccc32)cc1 [(Z)-4-(11-cyclopropyl-11H-benzo[b]pyrido[2,3-e][1,4]diazepin-5-yl)-N-hydroxybenzamide]	< 0.05 µM	–
CCN1c2ccccc2N=C(c2ccc(C(=O)NO)cc2)c2cccnc21 [(Z)-4-(11-ethyl-11H-benzo[b]pyrido[2,3-e][1,4]diazepin-5-yl)-N-hydroxybenzamide]	< 0.05 µM	–
O=C(NO)c1ccc(CN2c3ccccc3C=Cc3ccccc32)cc1 [(Z)-4-((5H-dibenzo[b,f]azepin-5-yl)methyl)-N-hydroxybenzamide]	–	< 0.05 µM
O=C(NO)c1ccc(C2=Nc3ccccc3Oc3ncccc32)cc1 [(Z)-4-(benzo[b]pyrido[3,2-f][1,4]oxazepin-5-yl)-N-hydroxybenzamide]	0.05 to 0.1 µM	–
O=C(NO)c1ccc(C2=Nc3ccccc3Oc3cnccc32)cc1 [(Z)-4-(benzo[b]pyrido[4,3-f][1,4]oxazepin-5-yl)-N-hydroxybenzamide]	0.1 to 1 µM	–
O=C(NO)c1ccc(C2=Nc3cccnc3Oc3ccccc32)cc1 [(Z)-4-(benzo[f]pyrido[2,3-b][1,4]oxazepin-6-yl)-N-hydroxybenzamide]	< 0.05 µM	–
O=C(NO)c1ccc(C2=Nc3ccsc3Oc3ccccc32)cc1 [(Z)-4-(benzo[f]thieno[2,3-b][1,4]oxazepin-5-yl)-N-hydroxybenzamide]	0.1 to 1 µM	–
O=C(NO)c1ccc(C2=Nc3ccccc3Oc3ccccc32)cc1F [(Z)-4-(dibenzo[b,f][1,4]oxazepin-11-yl)-2-fluoro-N-hydroxybenzamide]	0.1 to 1 µM	–
O=C(NO)c1ccc(C2=Nc3ccccc3Oc3ccccc32)cc1 [(Z)-4-(dibenzo[b,f][1,4]oxazepin-11-yl)-N-hydroxybenzamide]	< 0.05 µM	–
O=C(NO)c1ccc(C2=Nc3ccccc3Sc3ccccc32)cc1 [(Z)-4-(dibenzo[b,f][1,4]thiazepin-11-yl)-N-hydroxybenzamide]	0.1 to 1 µM	–
O=C(NO)c1ccc(C2=Nc3ccccc3Oc3c[n+]([O-])ccc32)cc1 [(Z)-5-(4-(hydroxycarbamoyl)phenyl)benzo[b]pyrido[4,3-f][1,4]oxazepine 2-oxide]	0.1 to 1 µM	–
O=C(CCCCN1c2ccccc2C=Cc2ccccc21)NO [(Z)-5-(5H-dibenzo[b,f]azepin-5-yl)-N-hydroxypentanamide]	–	0.1 to 1 µM
O=C(CCCCCN1c2ccccc2C=Cc2ccccc21)NO [(Z)-6-(5H-dibenzo[b,f]azepin-5-yl)-N-hydroxyhexanamide]	–	< 0.05 µM
O=C(CCCCCC(=O)N1c2ccccc2C=Cc2ccccc21)NO [(Z)-7-(5H-dibenzo[b,f]azepin-5-yl)-N-hydroxy-7-oxoheptanamide]	–	< 0.05 µM
O=C(CCCCCCN1c2ccccc2C=Cc2ccccc21)NO [(Z)-7-(5H-dibenzo[b,f]azepin-5-yl)-N-hydroxyheptanamide]	–	< 0.05 µM
O=C(CCCCCCC(=O)N1c2ccccc2C=Cc2ccccc21)NO [(Z)-8-(5H-dibenzo[b,f]azepin-5-yl)-N-hydroxy-8-oxooctanamide]	–	0.1 to 1 µM
CN1C(=O)CN=C(c2ccccc2)c2ccc(CCC(=O)NO)cc21 [(Z)-N-hydroxy-3-(1-methyl-2-oxo-5-phenyl-2,3-dihydro-1H-benzo[e][1,4]diazepin-8-yl)propanamide]	–	0.1 to 1 µM
COc1cccc2c1C(c1ccc(C(=O)NO)cc1)=Nc1ccccc1O2 [(Z)-N-hydroxy-4-(1-methoxydibenzo[b,f][1,4]oxazepin-11-yl)benzamide]	0.1 to 1 µM	–
CN1C(=O)CN=C(c2ccc(C(=O)NO)cc2)c2ccccc21 [(Z)-N-hydroxy-4-(1-methyl-2-oxo-2,3-dihydro-1H-benzo[e][1,4]diazepin-5-yl)benzamide]	–	0.1 to 1 µM
O=C(NO)c1ccc(C2=Nc3ccc(C(F)(F)F)nc3Oc3ccccc32)cc1 [(Z)-N-hydroxy-4-(2-(trifluoromethyl)benzo[f]pyrido[2,3-b][1,4]oxazepin-6-yl)benzamide]	0.05 to 0.1 µM	–
COc1ccc2c(c1)C(c1ccc(C(=O)NO)cc1)=Nc1ccccc1O2 [(Z)-N-hydroxy-4-(2-methoxydibenzo[b,f][1,4]oxazepin-11-yl)benzamide]	0.1 to 1 µM	–

SMILES	IC50 [1]	IC50 [2]
O=C(NO)c1ccc(C2=Nc3ccccc3Oc3cc(C(F)(F)F)ccc32)cc1 [(Z)-N-hydroxy-4-(3-(trifluoromethyl)dibenzo[b,f][1,4]oxazepin-11-yl)benzamide]	0.05 to 0.1 µM	–
COc1ccc2c(c1)Oc1ccccc1N=C2c1ccc(C(=O)NO)cc1 [(Z)-N-hydroxy-4-(3-methoxydibenzo[b,f][1,4]oxazepin-11-yl)benzamide]	0.1 to 1 µM	–
Cc1ccc2c(c1)Oc1ccccc1N=C2c1ccc(C(=O)NO)cc1 [(Z)-N-hydroxy-4-(3-methyldibenzo[b,f][1,4]oxazepin-11-yl)benzamide]	< 0.05 µM	–
O=C(NO)c1ccc(C2=Nc3ccccc3Oc3cc(N4CCOCC4)ccc32)cc1 [(Z)-N-hydroxy-4-(3-morpholinodibenzo[b,f][1,4]oxazepin-11-yl)benzamide]	0.1 to 1 µM	–
COCCOc1cccc2c1Oc1ccccc1N=C2c1ccc(C(=O)NO)cc1 [(Z)-N-hydroxy-4-(4-(2-methoxyethoxy)dibenzo[b,f][1,4]oxazepin-11-yl)benzamide]	< 0.05 µM	–
O=C(NO)c1ccc(C2=Nc3ccccc3Oc3c(OCCN4CCOCC4)cccc32)cc1 [(Z)-N-hydroxy-4-(4-(2-morpholinoethoxy)dibenzo[b,f][1,4]oxazepin-11-yl)benzamide]	< 0.05 µM	–
C[S+]([O-])c1cccc2c1Oc1ccccc1N=C2c1ccc(C(=O)NO)cc1 (stereo not drawn) [(Z)-N-hydroxy-4-(4-(methylsulfinyl)dibenzo[b,f][1,4]oxazepin-11-yl)benzamide]	0.05 to 0.1 µM	–
CS(=O)(=O)c1cccc2c1Oc1ccccc1N=C2c1ccc(C(=O)NO)cc1 [(Z)-N-hydroxy-4-(4-(methylsulfonyl)dibenzo[b,f][1,4]oxazepin-11-yl)benzamide]	< 0.05 µM	–
CSc1cccc2c1Oc1ccccc1N=C2c1ccc(C(=O)NO)cc1 [(Z)-N-hydroxy-4-(4-(methylthio)dibenzo[b,f][1,4]oxazepin-11-yl)benzamide]	< 0.05 µM	–
O=C(NO)c1ccc(C2=Nc3ccccc3Oc3c(OC(F)(F)F)cccc32)cc1 [(Z)-N-hydroxy-4-(4-(trifluoromethoxy)dibenzo[b,f][1,4]oxazepin-11-yl)benzamide]	0.1 to 1 µM	–
O=C(NO)c1ccc(C2=Nc3ccccc3Oc3c2cccc3C(F)(F)F)cc1 [(Z)-N-hydroxy-4-(4-(trifluoromethyl)dibenzo[b,f][1,4]oxazepin-11-yl)benzamide]	< 0.05 µM	–
O=C(NO)c1ccc(C2=Nc3ccccc3Oc3c(O)cccc32)cc1 [(Z)-N-hydroxy-4-(4-hydroxydibenzo[b,f][1,4]oxazepin-11-yl)benzamide]	0.05 to 0.1 µM	–
COc1cccc2c1Oc1ccc(C(F)(F)F)cc1N=C2c1ccc(C(=O)NO)cc1 [(Z)-N-hydroxy-4-(4-methoxy-8-(trifluoromethyl)dibenzo[b,f][1,4]oxazepin-11-yl)benzamide]	0.1 to 1 µM	–
COc1cccc2c1Oc1ccccc1N=C2c1ccc(C(=O)NO)cc1 [(Z)-N-hydroxy-4-(4-methoxydibenzo[b,f][1,4]oxazepin-11-yl)benzamide]	0.05 to 0.1 µM	–
Cc1cccc2c1Oc1ccccc1N=C2c1ccc(C(=O)NO)cc1 [(Z)-N-hydroxy-4-(4-methyldibenzo[b,f][1,4]oxazepin-11-yl)benzamide]	0.05 to 0.1 µM	–
CCCc1cccc2c1Oc1ccccc1N=C2c1ccc(C(=O)NO)cc1 [(Z)-N-hydroxy-4-(4-propyldibenzo[b,f][1,4]oxazepin-11-yl)benzamide]	0.1 to 1 µM	–
COCCN1c2ccccc2N=C(c2ccc(C(=O)NO)cc2)c2ccccc21 [(Z)-N-hydroxy-4-(5-(2-methoxyethyl)-5H-dibenzo[b,e][1,4]diazepin-11-yl)benzamide]	0.1 to 1 µM	–
O=C(NO)c1ccc(C2=Nc3ccccc3N(CCN3CCOCC3)c3ccccc32)cc1 [(Z)-N-hydroxy-4-(5-(2-morpholinoethyl)-5H-dibenzo[b,e][1,4]diazepin-11-yl)benzamide]	0.1 to 1 µM	–
CC(C)N1c2ccccc2N=C(c2ccc(C(=O)NO)cc2)c2ccccc21 [(Z)-N-hydroxy-4-(5-isopropyl-5H-dibenzo[b,e][1,4]diazepin-11-yl)benzamide]	< 0.05 µM	–
Cc1cccc2c1Oc1ccccc1C(c1ccc(C(=O)NO)cc1)=N2 [(Z)-N-hydroxy-4-(6-methyldibenzo[b,f][1,4]oxazepin-11-yl)benzamide]	0.1 to 1 µM	–
O=C(NO)c1ccc(C2=Nc3ccc(C(F)(F)F)cc3Oc3ccccc32)cc1 [(Z)-N-hydroxy-4-(7-(trifluoromethyl)dibenzo[b,f][1,4]oxazepin-11-yl)benzamide]	0.1 to 1 µM	–
O=C(NO)c1ccc(C2=Nc3cc(C(F)(F)F)ccc3Oc3ccccc32)cc1 [(Z)-N-hydroxy-4-(8-(trifluoromethyl)dibenzo[b,f][1,4]oxazepin-11-yl)benzamide]	0.1 to 1 µM	–
Cc1ccc2c(c1)N=C(c1ccc(C(=O)NO)cc1)c1ccccc1O2 [(Z)-N-hydroxy-4-(8-methyldibenzo[b,f][1,4]oxazepin-11-yl)benzamide]	0.05 to 0.1 µM	–
O=C(NO)c1ccc(C2=Nc3ccccc3N(CCN3CCOCC3)c3ncccc32)cc1 [(Z)-N-hydroxy-4-(11-(2-morpholinoethyl)-11H-benzo[b]pyrido[2,3-e][1,4]diazepin-5-yl)benzamide]	0.05 to 0.1 µM	–
